Source: US20230399314A1, “CD73 INHIBITOR AND USE THEREOF” (WUHAN HUMANWELL INNOVATIVE DRUG RESEARCH AND DEVELOPMENT …, priority 2020, published 2023)

Columns and labels:
[1] = molecular target: CD73 bound to the surfaces of A375 cells (Homo sapiens (Human), UniProt P21589); test: Inhibitory activity to CD73 enzyme bound to the surfaces of human melanoma A375 cells; assay type: cell-based; conditions: AMP 200 μM, 16 h
Protocol: The compound was diluted with serum-free DMEM to form a stock solution (5×) of an appropriate concentration gradient, the compound solution was added to the cells in the above 96-well plate according to 20 μL/well, and the mixture was placed in an incubator and pre-incubated for 30 min.
(§1) A375-bound CD73 inhibition rates of the compound at different concentrations were calculated according to the following formula, the concentration of the compound was taken as the X-axis, the inhibition rate was taken as the Y-axis, and an IC50 value of the compound in inhibiting A375-bound CD73 was calculated by using Prism software.

Human CD4+ T cells = test: Relieving AMP-induced proliferation inhibition of human CD4+ T cells (CCK8); assay type: cell-based; conditions: Homo sapiens, 120 h, AMP 0.3 mM, day 5
Protocol: On day 1 of the experiment, CD4^+ T cells (Allcells Shanghai, PB009-2F-C) were thawed, and inoculated into two replicate wells according to 3×10^4 cells/well and 50 μL/well. The compound was diluted with a complete medium to form a stock solution (4×) of an appropriate concentration gradient, the compound solution was added to the above cells according to 50 μL/well, and the mixture was pre-incubated at 37° C. for 30 min. […] Meanwhile, a positive reference group (Human CD4^+ T+IL-2+CD3/CD28 beads) and a negative reference group (Human CD4^+ T+IL-2+CD3/CD28 beads+AMP) were set. AMP (Sigma; A1752-5G) was diluted with a complete medium to form an AMP solution (4×), the AMP solution was added to the above cells according to 50 μL/well, the final concentration was 0.3 mM, and the mixture was incubated at 37° C. On day 3 of the experiment, the AMP solution was added to the above plate according to 20 μL/well, and the final concentration was 0.3 mM. On day 5, the proliferation of the cells was detected by using a CCK8 kit (DojinDO; CK04).
Inhibition rates of the compound at different concentrations in relieving AMP-induced proliferation inhibition of CD4^+ T cells were calculated according to the following formula, the concentration of the compound was taken as the X-axis, the inhibition rate was taken as the Y-axis, and an EC50 value of the compound in relieving the AMP-induced proliferation inhibition of CD4^+ T cells was calculated by using Prism software.

[2] = Pharmacokinetic test on dogs; assay type: in vivo, male Beagle dogs; conditions: for AUC(0-t) / Cmax / Tmax / half-life / clearance / Vd: male, Beagle, plasma, dog; for Vd: read-out: Vz
Protocol: (§2) In a pharmacokinetic test on mice, male ICR mice of 20 g to 25 g were used and fasted overnight. 3 mice were selected for orally intragastric administration (10 mg/kg). Before administration, and 15 min, 30 min, 1 h, 2 h, 4 h, 8 h, and 24 h after administration, blood was sampled from each mouse. Another 3 mice were selected for intravenous injection administration (3 mg/kg), and before administration, and 15 min, 30 min, 1 h, 2 h, 4 h, 8 h, and 24 h after administration, blood was sampled from each mouse. The blood sample was centrifuged at 6,800 g and 2 to 8° C. for 6 min, and plasma was collected and stored at −80° C. The plasma of each time point was vortex-mixed for 1 min with an acetonitrile solution containing the internal standard with a volume 3-5 times that of the plasma of each time point, and centrifuged at 13,000 rpm and 4° C. for 10 min, a supernatant was collected and mixed with water with a volume 3 times that of the supernatant, and an appropriate amount of the mixed solution was used for LC-MS/MS analysis. The main pharmacokinetic parameters were analyzed by using a WinNonlin 7.0 non-compartmental model.
In a pharmacokinetic test on dogs, male Beagle dogs of 8 to 10 kg were used and fasted overnight. 3 Beagle dogs were selected for orally intragastric administration (5 mg/kg). Another 3 Beagle dogs were selected for intravenous injection administration (1 mg/kg). Other operations were the same as the pharmacokinetic test on mice.

[3] = Plasma protein binding by equilibrium dialysis, human plasma; assay type: in vitro ADME; conditions: 37° C.
Protocol: (§3) Plasma protein binding rates of the compounds were detected by equilibrium dialysis (HTDialysis, HTD 96b). The compound was diluted with DMSO to form a 0.5 mM stock solution, and the stock solution was diluted 25 times with a 0.05 M sodium phosphate buffer to form a 20 μM working solution. Plasma was placed in a new 96-well plate according to 380 μL/well, then the working solution was added to and uniformly mixed with the plasma according to 20 μL/well, the final concentration of the compound was 1 μM, and each well contained 0.2% DMSO.
(§4) 100 μL of 0.05 M sodium phosphate buffer was added to a receiving side of each dialysis chamber (HTD 96b), and 100 μL of plasma containing the compound was added to a supply side. The dialysis apparatus was closed with a plastic lid, and incubated with shaking at 37° C. for 5 h.
(§5) After the incubation was completed, 25 μL of sample was collected respectively from the supply side and the receiving side of the dialysis chamber, and placed in a new 96-well plate, an equal volume of blank plasma was added to and uniformly mixed with each sample on the supply side, an equal volume of 0.05 M sodium phosphate buffer was added to and uniformly mixed with each sample on the receiving side. 200 μL of acetonitrile solution containing the internal standard was added to each well, the 96-well plate was vortex-shaken at 600 rpm for 10 min, and centrifuged at 5,594 g for 15 min (Thermo Multifuge×3R), 50 μL of supernatant was transferred to a new 96-well plate, and the sample was mixed with 50 μL of ultrapure water and subjected to LC-MS/MS analysis.
(§6) A plasma protein binding rate and a fraction unbound in plasma were calculated according to the following formulas:
(§7) % binding rate=100×([supply side concentration]5h−[receiving side concentration]5h)/[supply side concentration]5h; and
(§8) % fraction unbound in plasma=100−% binding rate.

[4] = Pharmacokinetic test on mice; assay type: in vivo, male ICR mice; conditions: for half-life / AUC(0-t) / Cmax / Tmax / clearance / Vd: male, ICR, plasma, mouse; for AUC(0-t): read-out: AUC0-t; for Cmax: read-out: Cmax; for Tmax: read-out: Tmax; for Vd: read-out: Vz
Protocol: as §2

[5] = Plasma protein binding by equilibrium dialysis, mouse plasma; assay type: in vitro ADME; conditions: 37° C.
Protocol: as §3, §4, §5, §6, §7, §8

[6] = Plasma protein binding by equilibrium dialysis, canine plasma; assay type: in vitro ADME; conditions: dog, 37° C.
Protocol: as §3, §4, §5, §6, §7, §8

Human-CD73 enzyme = Human-CD73 enzyme (Homo sapiens (Human), UniProt P21589); test: In vitro inhibitory activity to recombinant human CD73 enzyme (ATP-GLO); assay type: biochemical; conditions: Human-CD73 0.1 μg/mL, AMP 100 μM
Sequence of Human-CD73 enzyme (P21589 27-574): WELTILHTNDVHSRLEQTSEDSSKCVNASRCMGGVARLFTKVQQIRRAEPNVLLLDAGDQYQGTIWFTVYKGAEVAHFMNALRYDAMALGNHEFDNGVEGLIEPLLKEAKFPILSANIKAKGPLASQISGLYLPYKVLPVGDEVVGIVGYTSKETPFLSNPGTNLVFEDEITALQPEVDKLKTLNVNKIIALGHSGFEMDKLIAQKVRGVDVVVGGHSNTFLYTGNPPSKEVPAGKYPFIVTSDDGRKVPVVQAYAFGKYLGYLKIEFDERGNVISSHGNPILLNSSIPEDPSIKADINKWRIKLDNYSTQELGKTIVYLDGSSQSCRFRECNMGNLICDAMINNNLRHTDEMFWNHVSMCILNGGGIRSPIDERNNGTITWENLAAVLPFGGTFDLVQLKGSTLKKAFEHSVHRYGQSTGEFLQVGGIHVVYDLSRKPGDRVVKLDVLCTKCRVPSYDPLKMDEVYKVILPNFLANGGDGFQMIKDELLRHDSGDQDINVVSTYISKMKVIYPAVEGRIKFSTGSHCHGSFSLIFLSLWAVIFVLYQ
Protocol: Human-CD73 (Novoprotein; C446) was diluted with Tris-MgCl2 buffer to form a stock solution (3×), which was placed in a 96-well plate according to 20 μL/well to obtain a final concentration of 0.1 μg/mL. The compound was diluted with Tris-MgCl2 buffer to form a stock solution (3×) of an appropriate concentration gradient, the compound solution was added to the above 96-well plate according to 20 μL/well and uniformly mixed with the Human-CD73 solution, and the mixture was incubated at the room temperature for 30 min. Meanwhile, a positive reference group (without the compound) and a negative reference group (without CD73) were set. AMP (Sigma; A1752-5G) was diluted with Tris-MgCl2 buffer to form a stock solution (3×), which was added to the above 96-well plate according to 20 μL/well to obtain a final concentration of 100 μM, and the mixture was uniformly mixed and incubated at 37° C. for 60 min; ATP (Sigma; A7699-1G) was diluted with Tris-MgCl2 buffer to form a stock solution (7×), which was added to the above 96-well plate according to 10 μL/well to obtain a final concentration of 100 μM, and the mixture was uniformly mixed, incubated for 5 min, and tested by using an ATP-GLO kit (Promega; G7573).
as §1, with “Human-CD73” for “A375-bound CD73”

A375 melanoma = test: In vivo efficacy on A375 melanoma (PBMC + A375 cells in NCG mice); conditions: for Mean ± SEM (tumor size): in mm³ (unit assumed)
Protocol: A375 cells in logarithmic growth phase were collected, cultured in Mitomycin C for 2 h, and washed three times with PBS. After 5 days of co-culture of PBMC and A375 cells, PBMC and freshly digested A375 cells were collected, 5×10^5 PBMC and 4×10^6 A375 cells were inoculated subcutaneously on the right side of NCG mice according to 0.2 mL/mouse (containing 50% Matrigel). After inoculation, the mice were randomly divided into a model group and an administration group according to body weight of the mice, tumor size and animal weight were measured and recorded before and during administration, and tumor sizes of the model group and the administration group were compared after treatment to determine the efficacy.

[7] = po, orally intragastric 5 mg/kg
[8] = po, orally intragastric 10 mg/kg
[9] = compound 40 mg/kg + anti PD-1 10 mg/kg

Sequence of CD73 bound to the surfaces of A375 cells (P21589 27-574): as above

Compound	IC50 [1]	EC50 (Human CD4+ T cells)	AUC(0-t) [2, 7]	Cmax [2, 7]	Tmax [2, 7]	half-life [2, 7]	AUC(0-t) ([2]; intravenous injection 1 mg/kg)	clearance ([2]; intravenous injection 1 mg/kg)	half-life ([2]; intravenous injection 1 mg/kg)	Vd ([2]; intravenous injection 1 mg/kg)	fraction unbound at 5 h, 1 μM [3]	half-life [4, 8]	AUC(0-t) [4, 8]	Cmax [4, 8]	Tmax [4, 8]	clearance ([4]; intravenous injection 3 mg/kg)	half-life ([4]; intravenous injection 3 mg/kg)	AUC(0-t) ([4]; intravenous injection 3 mg/kg)	Vd ([4]; intravenous injection 3 mg/kg)	fraction unbound at 5 h, 1 μM [5]	further results
O=c1[nH]cc(-c2cc([C@H]3C[C@@H]3C(F)F)c(Cl)nn2)c(=O)[nH]1 [Reference compound 2, 5-(6-chloro-5-((1S,2S)-2-(difluoromethyl)cyclopropyl)pyridazin-3-yl)pyrimidine-2,4(1H,3H)-dione, reference compound]	67.3 nM	93.7 nM	9000 ng·h/mL	3620 ng/mL	0.5 h	3.3 h	1560 ng·h/mL	10.8 mL/min/kg	1.37 h	1.33 L/kg	0.098	1.09 h	5380 ng·h/mL	4540 ng/mL	0.42 h	22 mL/min/kg	1.25 h	2360 ng·h/mL	2.4 L/kg	0.261	fraction unbound at 5 h, 1 μM [6]: 0.177; IC50 (Human-CD73 enzyme): 16.8 nM
Toripalimab [anti PD-1]																					% TGI (A375 melanoma; anti PD-1 10 mg/kg alone): 25.08%; Mean ± SEM (tumor size) (A375 melanoma; anti PD-1 10 mg/kg alone): 1472 ± 194.9
O=c1[nH]cc(-c2cc([C@@H]3C[C@H]3C(F)(F)F)c(Cl)nn2)c(=O)[nH]1 [Compound 4, 5-(6-chloro-5-((1R,2R)-2-(trifluoromethyl)cyclopropyl)pyridazin-3-yl)pyrimidine-2,4(1H,3H)-dione]	134 nM	1070 nM	65700 ng·h/mL	7550 ng/mL	1.17 h	4.13 h	5810 ng·h/mL	3 mL/min/kg	3.63 h	0.95 L/kg		2.85 h	185000 ng·h/mL	16100 ng/mL	3 h	3.33 mL/min/kg	3.68 h	15200 ng·h/mL	1.05 L/kg		exposure compared to the reference compounds ([2]; dogs): much higher; pharmacokinetic properties compared to the reference compounds ([4]; mice): significantly improved; IC50 (Human-CD73 enzyme): 58.4 nM
O=c1[nH]cc(-c2cc([C@H]3C[C@@H]3CF)c(Cl)nn2)c(=O)[nH]1 [Compound 1, 5-(6-chloro-5-((1S,2S)-2-(fluoromethyl)cyclopropyl)pyridazin-3-yl)pyrimidine-2,4(1H,3H)-dione]	30.7 nM	71.9 nM	16900 ng·h/mL	5480 ng/mL	1.17 h	2.67 h	1460 ng·h/mL	12.2 mL/min/kg	0.94 h	0.99 L/kg	0.274	3.31 h	5720 ng·h/mL	4300 ng/mL	0.42 h					0.474	fraction unbound at 5 h, 1 μM [6]: 0.245; % TGI (A375 melanoma; [9]): 63.68%; Mean ± SEM (tumor size) (A375 melanoma; [9]): 713.7 ± 89.22
Cc1nnc(-c2c[nH]c(=O)[nH]c2=O)cc1[C@H]1C[C@@H]1C(C)C [Reference compound 3, 5-(5-((1S,2R)-2-isopropylcyclopropyl)-6-methylpyridazin-3-yl)pyrimidine-2,4(1H,3H)-dione, reference compound]		341 nM	1540 ng·h/mL	1200 ng/mL	0.42 h	0.93 h	512 ng·h/mL	36 mL/min/kg	0.39 h	1.14 L/kg	0.103	1.19 h	1270 ng·h/mL	1270 ng/mL	0.33 h	70 mL/min/kg	0.28 h	730 ng·h/mL	1.67 L/kg	0.122	fraction unbound at 5 h, 1 μM [6]: 0.126; % TGI (A375 melanoma; [9]): 41.52%; Mean ± SEM (tumor size) (A375 melanoma; [9]): 1149 ± 167.8
